Results reported in US20100061982A1, “3-SUBSTITUTED-1H-INDOLE, 3-SUBSTITUTED-1H-PYRROLO[2,3-B]PYRIDINE AND 3-SUBSTITUTED-1H-PYRROLO[3,2-B]PYRIDINE COMPOUNDS, THEIR USE AS MTOR KINASE AND PI3 KINASE INHIBITORS, AND THEIR SYNTHESES” (priority 2008, published 2010).
In brackets after ≈: the same amount, converted by molar mass. Where two headings read alike, the source gives them in different places.

Key:
[1] = target: PI3K alpha (Homo sapiens, UniProt P42336); test: PI3K-alpha Fluorescence Polarization Assay; format: biochemical
[2] = CACO2 permeability a-b/b-a; format: in vitro ADME; details: human, Caco-2; for Papp A→B: a − b (first value of cell), read-out: CACO2 Pe a − b; for Papp B→A: b − a (second value of cell), read-out: CACO2 Pe b − a
[3] = Microsome Stability (15 min), human; format: in vitro ADME; details: microsomes
[4] = Microsome Stability (15 min), nude mouse; format: in vitro ADME; details: microsomes
[5] = Microsome Stability (15 min), rat; format: in vitro ADME; details: microsomes, Phase I (NADPH), read-out: Microsome Stability (15 min) T ½ Phase I rat
[6] = Solubility pH 7.4; details: pH 7.4, aqueous buffer
[7] = PAMPA permeability pH 7.4
[8] = target: mTOR (Homo sapiens, UniProt P42345); test: mTOR Enzyme Assay (DELFIA, purified enzyme); format: biochemical; parameters: FLAG
[9] = In vivo blood/plasma and tumor levels of prodrug and metabolites after 50 mg, kg po; details: 50 mg
[10] = Phase I (NADPH), read-out: Microsome Stability (15 min) T ½ Phase I human
[11] = value after the slash in Table VIc, read-out: Microsome Stability (15 min) T ½ human, second value of cell
[12] = nude, mouse, Phase I (NADPH), read-out: Microsome Stability (15 min) T ½ Phase I nude mouse
[13] = Phase I (NADPH), read-out: Microsome Stability (15 min) T ½ Phase I nude mouse

PI3K alpha, sequence (P42336 whole entry, species assumed): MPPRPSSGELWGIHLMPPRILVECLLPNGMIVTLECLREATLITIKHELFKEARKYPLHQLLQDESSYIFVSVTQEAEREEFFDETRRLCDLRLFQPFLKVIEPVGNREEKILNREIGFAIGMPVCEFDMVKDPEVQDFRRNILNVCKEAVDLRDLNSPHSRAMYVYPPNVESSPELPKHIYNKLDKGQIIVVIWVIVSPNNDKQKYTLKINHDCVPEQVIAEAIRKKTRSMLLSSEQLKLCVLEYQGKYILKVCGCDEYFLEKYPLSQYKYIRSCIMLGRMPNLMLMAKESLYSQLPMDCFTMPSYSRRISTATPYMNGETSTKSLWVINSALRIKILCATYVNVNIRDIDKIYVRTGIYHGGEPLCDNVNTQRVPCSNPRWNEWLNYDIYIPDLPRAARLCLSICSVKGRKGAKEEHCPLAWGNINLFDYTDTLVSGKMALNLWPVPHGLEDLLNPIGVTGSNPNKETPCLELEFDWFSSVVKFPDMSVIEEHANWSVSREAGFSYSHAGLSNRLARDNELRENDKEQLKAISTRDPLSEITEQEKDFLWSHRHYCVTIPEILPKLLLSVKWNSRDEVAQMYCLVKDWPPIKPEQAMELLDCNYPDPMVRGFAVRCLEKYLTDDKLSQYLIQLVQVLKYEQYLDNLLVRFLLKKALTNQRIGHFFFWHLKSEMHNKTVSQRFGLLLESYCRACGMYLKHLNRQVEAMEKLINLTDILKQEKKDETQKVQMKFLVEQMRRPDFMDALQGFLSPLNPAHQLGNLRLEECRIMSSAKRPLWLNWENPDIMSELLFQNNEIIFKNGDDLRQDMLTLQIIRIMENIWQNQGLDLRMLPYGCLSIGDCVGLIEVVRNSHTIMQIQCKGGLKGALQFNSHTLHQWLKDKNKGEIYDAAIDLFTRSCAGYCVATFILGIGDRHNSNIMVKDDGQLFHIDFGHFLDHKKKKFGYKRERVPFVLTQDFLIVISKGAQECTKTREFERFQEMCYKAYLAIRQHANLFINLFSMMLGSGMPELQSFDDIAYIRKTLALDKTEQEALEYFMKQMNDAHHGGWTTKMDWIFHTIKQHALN
PI3K alpha, sequence (P27986 whole entry partner, species assumed): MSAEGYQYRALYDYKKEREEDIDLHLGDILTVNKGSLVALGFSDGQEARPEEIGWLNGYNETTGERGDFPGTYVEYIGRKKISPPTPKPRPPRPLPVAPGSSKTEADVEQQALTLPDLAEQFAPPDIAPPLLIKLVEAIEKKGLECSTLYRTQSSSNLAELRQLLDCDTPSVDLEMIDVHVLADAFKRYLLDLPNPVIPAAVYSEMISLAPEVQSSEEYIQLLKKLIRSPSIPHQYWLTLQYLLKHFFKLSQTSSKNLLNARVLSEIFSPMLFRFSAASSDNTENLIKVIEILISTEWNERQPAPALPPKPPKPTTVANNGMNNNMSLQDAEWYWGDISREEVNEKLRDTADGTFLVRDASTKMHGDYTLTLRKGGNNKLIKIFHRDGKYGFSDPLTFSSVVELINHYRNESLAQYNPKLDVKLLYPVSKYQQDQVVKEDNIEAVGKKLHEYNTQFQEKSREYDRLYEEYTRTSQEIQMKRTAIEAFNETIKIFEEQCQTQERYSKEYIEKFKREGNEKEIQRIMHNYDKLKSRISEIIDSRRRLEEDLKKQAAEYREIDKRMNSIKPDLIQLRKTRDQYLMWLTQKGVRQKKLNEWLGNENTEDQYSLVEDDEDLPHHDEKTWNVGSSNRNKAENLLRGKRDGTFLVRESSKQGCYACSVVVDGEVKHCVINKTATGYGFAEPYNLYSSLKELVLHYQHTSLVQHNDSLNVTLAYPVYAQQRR

| Structure (SMILES) | half-life [5] [min] | solubility [6] [µg/mL] | PAMPA Pe [7] | IC50 ([8]; read-out: mTOR Mean IC50) [nM] | IC50 [1] [nM] | also measured |
| --- | --- | --- | --- | --- | --- | --- |
| Cn1cc(/C=C2\Oc3cc(O)cc(O)c3C2=O)c2c(-c3ccccc3)ccnc21 [(2Z)-4,6-dihydroxy-2-[(1-methyl-4-phenyl-1H-pyrrolo[2,3-b]pyridin-3-yl)methylene]-1-benzofuran-3(2H)-one] | > 30 | 1 (≈ 2.6 µM) | 0.09 10e−6 cm/s | – | – | IC50 ([1]; read-out: PI3K alpha Mean IC50): 62.8 nM; Papp A→B [2]: 66.3 ×10⁻⁶ cm/s; Papp B→A [2]: 58.1 ×10⁻⁶ cm/s; half-life [3, 10]: > 30 min; half-life [3, 11]: 6 min; half-life [4, 12]: 30 min; half-life ([4]; nude, mouse, value after the slash in Table VIc, read-out: Microsome Stability (15 min) T ½ nude mouse, second value of cell): 2 min |
| Cn1cc(/C=C2\Oc3cccc(O)c3C2=O)c2c(N3CC4CCC(C3)O4)ccnc21 [(2Z)-4-hydroxy-2-{[1-methyl-4-(8-oxa-3-azabicyclo[3.2.1]oct-3-yl)-1H-pyrrolo[2,3-b]pyridin-3-yl]methylene}-1-benzofuran-3(2H)-one] | 2 | – | 0.79 10e−6 cm/s | – | – | Papp A→B [2]: 5.5 ×10⁻⁶ cm/s; Papp B→A [2]: 8.1 ×10⁻⁶ cm/s; half-life [3, 10]: 28 min; half-life [3, 11]: 3 min; half-life [4, 12]: 13 min |
| COc1ccc2c(c1)c(/C=C1\Oc3ccc(O)cc3C1=O)c(C)n2CCN1CCN(C)CC1 [(2Z)-5-hydroxy-2-({5-methoxy-2-methyl-1-[2-(4-methylpiperazin-1-yl)ethyl]-1H-indol-3-yl}methylene)-1-benzofuran-3(2H)-one] | – | – | – | 1050 | – | – |
| COc1ccc2c(c1)c(/C=C1\Oc3cc(OC(=O)N4CCOCC4)cc(OC(=O)N4CCOCC4)c3C1=O)cn2CCCN(C)C [Example 1, (2Z)-2-({1-[3-(dimethylamino)propyl]-5-methoxy-1H-indol-3-yl}methylene)-3-oxo-2,3-dihydro-1-benzofuran-4,6-diyl dimorpholine-4-carboxylate] | > 30 | > 100 | 1.4 10e−6 cm/s | > 4000 | > 10000 | – |
| CCOC(=O)CNC(=O)Oc1ccc2c(c1)O/C(=C\c1cn(CCCN(C)C)c3ccc(OC)cc13)C2=O [Example 25, ethyl N-({[(2Z)-2-({1-[3-(dimethylamino)propyl]-5-methoxy-1H-indol-3-yl}methylene)-3-oxo-2,3-dihydro-1-benzofuran-6-yl]oxy}carbonyl)glycinate] | – | > 100 | 0 10e−6 cm/s | 610 | 86 | – |
| COc1ccc2[nH]c(-c3ccccc3)c(/C=C3\Oc4cc(OP(=O)(O)c5ccccc5)ccc4C3=O)c2c1 [Example 26, (2Z)-2-[(5-methoxy-2-phenyl-1H-indol-3-yl)methylene]-3-oxo-2,3-dihydro-1-benzofuran-6-yl hydrogen phenylphosphonate] | > 30 | 11 (≈ 21 µM) | 0 10e−6 cm/s | 2200 | 108 | – |
| COc1ccc2[nH]c(-c3ccccc3)c(/C=C3\Oc4cc(OC(=O)N(C)C)cc(OC(=O)N(C)C)c4C3=O)c2c1 [Example 30, (2Z)-2-[(5-methoxy-2-phenyl-1H-indol-3-yl)methylene]-3-oxo-2,3-dihydro-1-benzofuran-4,6-diyl bis(dimethylcarbamate)] | 19 | – | 0 10e−6 cm/s | – | 2220 | Papp A→B [2]: 0.19 ×10⁻⁶ cm/s; Papp B→A [2]: 0.04 ×10⁻⁶ cm/s; half-life [3, 10]: < 1 min; half-life [4, 13]: > 30 min; plasma prodrug concentration ([9]; 0.5 h): 29 ng, ml; plasma prodrug concentration ([9]; 2 h): 65 ng, ml; plasma prodrug concentration ([9]; 6 h (third value)): 20 ng, ml |
| COc1ccc2[nH]c(-c3ccccc3)c(/C=C3\Oc4cc(OC(=O)N(C(C)C)C(C)C)cc(OC(=O)N(C(C)C)C(C)C)c4C3=O)c2c1 [Example 31, (2Z)-2-[(5-methoxy-2-phenyl-1H-indol-3-yl)methylene]-3-oxo-2,3-dihydro-1-benzofuran-4,6-diyl bis(diisopropylcarbamate)] | 9 | – | 0 10e−6 cm/s | 510 | – | IC50 ([1]; read-out: PI3K alpha Mean IC50): 270 nM; half-life [3, 10]: 7 min; half-life [4, 13]: > 30 min |
| COc1ccc2c(c1)c(/C=C1\Oc3cc(OC(=O)N4CCN(C)CC4)cc(OC(=O)N4CCN(C)CC4)c3C1=O)cn2CCCN(C)C [Example 36, (2Z)-2-({1-[3-(dimethylamino)propyl]-5-methoxy-1H-indol-3-yl}methylene)-3-oxo-2,3-dihydro-1-benzofuran-4,6-diyl bis(4-methylpiperazine-1-carboxylate)] | – | 36 (≈ 54.5 µM) | 0.23 10e−6 cm/s | 1080 | > 10000 | – |
| COc1ccc2c(c1)c(/C=C1\Oc3cc(OC(=O)N4CCN(Cc5ccccc5)CC4)cc(OC(=O)N4CCN(Cc5ccccc5)CC4)c3C1=O)cn2CCCN(C)C [Example 37, (2Z)-2-({1-[3-(dimethylamino)propyl]-5-methoxy-1H-indol-3-yl}methylene)-3-oxo-2,3-dihydro-1-benzofuran-4,6-diyl bis(4-benzylpiperazine-1-carboxylate)] | – | – | 0 10e−6 cm/s | 1650 | > 10000 | – |
| COc1ccc2c(c1)c(/C=C1\Oc3cc(O)cc(OC(=O)N(C)C)c3C1=O)c(C)n2CCN1CCN(C)CC1 [Example 39, (2Z)-6-hydroxy-2-({5-methoxy-2-methyl-1-[2-(4-methylpiperazin-1-yl)ethyl]-1H-indol-3-yl}methylene)-3-oxo-2,3-dihydro-1-benzofuran-4-yldimethylcarbamate] | 27 | > 100 | 0 10e−6 cm/s | – | 842 | IC50 [8]: > 4000 nM |
| COc1ccc2c(c1)c(/C=C1\Oc3cc(O)cc(OC(=O)N(C)C)c3C1=O)cn2CCCN(C)C [Example 40, (2Z)-2-({1-[3-(dimethylamino)propyl]-5-methoxy-1H-indol-3-yl}methylene)-6-hydroxy-3-oxo-2,3-dihydro-1-benzofuran-4-yl dimethylcarbamate] | – | – | – | > 20000 | 5880 | – |
| COc1ccc2c(c1)c(/C=C1\Oc3cc(OC(=O)N(C)C)cc(O)c3C1=O)c(C)n2CCN1CCN(C)CC1 [Example 41, (2Z)-4-hydroxy-2-({5-methoxy-2-methyl-1-[2-(4-methylpiperazin-1-yl)ethyl]-1H-indol-3-yl}methylene)-3-oxo-2,3-dihydro-1-benzofuran-6-yldimethylcarbamate] | – | – | – | – | 1130 | IC50 [8]: 13000 nM |
| COc1ccc2c(c1)c(/C=C1\Oc3cc(OC(=O)N(C)C)cc(O)c3C1=O)cn2CCCN(C)C [Example 42, (2Z)-2-({1-[3-(dimethylamino)propyl]-5-methoxy-1H-indol-3-yl}methylene)-4-hydroxy-3-oxo-2,3-dihydro-1-benzofuran-6-yl dimethylcarbamate] | – | – | – | > 20000 | 2800 | – |
| CNC(=O)Oc1ccc2c(c1)C(=O)/C(=C/c1cn(CCN3CCN(C)CC3)c3ccc(OC)cc13)O2 [Example 45, (2Z)-2-({5-methoxy-1-[2-(4-methylpiperazin-1-yl)ethyl]-1H-indol-3-yl}methylene)-3-oxo-2,3-dihydro-1-benzofuran-5-yl methylcarbamate] | 9 | 63 (≈ 128 µM) | 0.43 10e−6 cm/s | > 4000 | – | – |
